According to patent US20220257601A1, “INHIBITORS OF PRC1 FOR TREATMENT OF CANCER” (Board of Regents, The University of Texas System, priority 2019, published 2022):
Several values for one entry are separate records, joined by “and”; a condition that tells them apart may be missing. Identical values can stand only once. Like-named read-outs stand apart in the source and are kept apart here.

Columns and labels:
PC3 cells [1] = experiment: Bone metastasis after intracardiac injection of PC3 cells in male nude mice; type: in vivo, mouse; conditions: for Outgrowth of macroscopic bone lesions (bioluminescent imaging): data not shown
Protocol: (§1) For localized tumor growth assay, cells were resuspended in 100 μl PBS with Matrigel in 1:1 ratio and subcutaneously injected into both rear flanks. The volume of the s.c. xenograft was calculated as V=L×W^2/2, where L and W stand for tumor length and width, respectively. For experimental metastasis assays, cells were resuspended in 100 μl 1×PBS and intracardially injected into the left ventricle with a 26 G tuberculin syringe. For bone colonization, RM1 cells were resuspended 100 μl 1×PBS and injected into the intra-femoral artery. Metastatic burden was detected through non-invasive bioluminescence imaging of experimental animals using an IVIS Spectrum.
(§2) To investigate the effect of drug treatment, compounds or antibodies were delivered twice every week or every three days through i.p. injection except BLZ945, which was delivered orally. Bioluminescence signal was measured using the ROI tool in Living Image 4.4 software (PerkinElmer).
(§3) For bioluminescent imaging, mice were anesthetized and injected with 1.5 mg of D-luciferin retro-orbitally at the indicated times. Animals were imaged in an IVIS® 100 chamber within 5 min after D-luciferin injection, and data were recorded using LIVING IMAGE® software (Xenogen). To measure bone colonization after intracardiac injection, photon flux was calculated by using the ROI tool in the LIVING IMAGE® software. Bone metastases were further confirmed by X-Ray imaging. Mice were anesthetized with ketamine (100 mg/kg) and xylazine (10 mg/kg), placed on digital X ray Film (Scan X) and exposed at 25 kV for 15 s using a Faxitron instrument (Model MX-20; Faxitron Corp. Buffalo, Ill.).
(§4) The tissue sections were deparaffinized with EZPrep buffer (Ventana Medical Systems), antigen retrieval was performed with CC1 buffer (Ventana Medical Systems). Sections were blocked for 30 minutes with Background Buster solution (Innovex), followed by avidin-biotin blocking for 8 minutes (Ventana Medical Systems) (except for slides stained with CD4 and NKp46 antibodies). Sections were incubated with anti-RNF2, anti-BMI1, anti-Ki67, anti-Cleaved Caspase 3, anti-CD11b, anti-CD68, anti-CD8, anti-CD31, anti-B220, anti-FoxP3, anti-CD4, or anti-NKp46 for 5 hours, followed by 60 minutes incubation with biotinylated horse anti-rabbit IgG at 1:200 dilution (for Ki67, Cleaved Caspase 3, CD11b and CD8) or biotinylated goat anti-rat IgG at 1:200 dilution (for CD31, B220 and FoxP3) or biotinylated horse anti-goat IgG at 1:200 dilution (for CD4 and NKp46). The detection was performed with DAB detection kit (Ventana Medical Systems) according to manufacturer instruction. Slides were counterstained with hematoxylin and coverslipped with PERMOUNT™ (Fisher Scientific).

PRC1 = target: T1, PRC1 (Homo sapiens, UniProt Q99496); experiment: Inhibition of H2Aub (monoubiquitylation of histone H2A) in PC3 cells; type: cell-based
T1 construct: PC3 cells were exposed to drugs for the indicated hours; endogenous in cells; host or cells: PC3 cells
T1 sequence (Q99496 2-336 limits assumed): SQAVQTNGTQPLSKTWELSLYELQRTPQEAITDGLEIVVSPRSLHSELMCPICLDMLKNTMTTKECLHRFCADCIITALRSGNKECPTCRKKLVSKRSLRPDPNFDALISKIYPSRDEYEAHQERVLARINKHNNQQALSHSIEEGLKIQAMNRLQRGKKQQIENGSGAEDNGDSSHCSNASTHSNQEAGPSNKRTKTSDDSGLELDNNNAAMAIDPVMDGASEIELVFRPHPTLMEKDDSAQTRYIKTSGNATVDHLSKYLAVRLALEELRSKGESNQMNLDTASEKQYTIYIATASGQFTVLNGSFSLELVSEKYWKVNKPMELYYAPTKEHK
Protocol: (§5) For immunoblotting, cells were washed with PBS and lysed in RIPA buffer (50 mM Tris-HCl pH 7.4, 150 mM NaCl, 1 mM EDTA, 1% Triton X-100, 1% sodium deoxycholate, and 0.1% SDS) supplemented with protease inhibitors (Calbiochem) and phosphatase inhibitors (PhosSTOP, Roche Life Science). Protein concentrations were measured by using the DC Protein Assay. Total RNA was extracted using the RNeasy Mini kit coupled with RNase-free DNase set (Qiagen) and reverse transcribed with SuperScript III First-Strand Synthesis SuperMix (Invitrogen). cDNA corresponding to approximately 10 ng of starting RNA was used for one reaction. Q-PCR was performed with Taqman Gene Expression Assay (Applied Biosystems). All quantifications were normalized to endogenous GAPDH.
PC3 cells were exposed to drugs for the indicated hours, then harvested using […] EDTA in PBS, and washed once with cold PBS. Nuclear extracts were prepared and histones were extracted using 0.4N sulfuric acid. H2A or ubH2A was measured using the indicated antibodies.

PC3 cells [2] = experiment: Tumor sphere assay, PC3 cells; type: cell-based, human; conditions: for IC50: Homo sapiens, PC-3, read-out: Inhibition of sphere formation ability normalized to control groups, IC50
Protocol: (§6) Single cell suspensions of LNCaP, DU145, PC3, PC3M or RM1 cells (1,000 cells/ml) were plated on ultra-low attachment plates and cultured in serum-free PrEGM (Lonza) supplemented with 1:50 B27, 20 ng/ml bFGF and 40 ng/ml EGF for 10 days. Tumor spheres were visualized under phase contrast microscope, photographed, and counted. For serial passage, tumor spheres were collected using 70-μm cell strainers and dissociated with ACCUTASE® for 30 min at 37° C. to obtain single-cell suspensions.

RM1 cells [3] = experiment: Tumor sphere assay, RM1 cells; type: cell-based, mouse; conditions: data not shown
Protocol: as §6

PC3 cells [4] = experiment: Cell growth under standard culture conditions; type: cell-based, human; conditions: concentrations up to 1 μM, data not shown
Protocol: Control and RNF2-silenced PC3 cells were plated at 1×10^3 per well in 96 well plates for 24 hours. After 24 hours, cells were incubated in 0.5 mg/ml MTT (Invitrogen) for 2 h at 37° C. MTT crystals were dissolved in DMSO and absorbance was measured in a plate reader at 540 nm.
The candidate library was provided by the Organic Synthesis Core Facility from MSKCC. The testing concentration of candidate compounds on PC3 cells was 1 μM. RNF2 target gene expression change was used as a readout for the first round screen. Cell viability, tumor sphere formation assay and histone modification change were then used to further confirm the activity of the candidate compound.

RNF2-PRC1 complex = target: T2, RNF2-PRC1 complex (Homo sapiens, UniProt Q99496); experiment: In vitro ubiquitination assay (cell-free system); type: biochemical; conditions: data not shown
T2 construct: RNF2-PRC1 complex was immunoprecipitated from one 15 cm plate of PC3 cells; endogenous in cells; host or cells: PC3 cells (immunoprecipitate)
T2 sequence (Q99496 2-336 limits assumed): T1 sequence (Q99496 2-336 limits assumed)
Protocol: RNF2-PRC1 complex was immunoprecipitated from one 15 cm plate of PC3 cells. After extensive washing, the complex was pre-incubated with drugs at 4° C. for 30 minutes. UBCH5c, E1, were from Boston Biochem. Reactions were performed in 30 μl of ubiquitilation buffer (50 mM Tris, pH 7.5, 2.5 mM MgCl2, 0.5 mM DTT) containing ubiquitin-activating enzyme 100 ng E1, 200 ng UBCH5c, 10 μg ubiquitin, 0.2 mM ATP, 1 μg H2A, and the indicated PNF2-PRC1 complex. After incubated at 37° C. for 60 min, the reactions were then stopped by the addition of Laemmli sample buffer, and proteins were resolved by SDS-PAGE and immunoblotted using H2A antibody.

PC3 cells [5] = experiment: Gene expression changes and pathway analysis compared with RNF2 silencing; type: cell-based, human; conditions: compared with 2 and RNF2 silencing; data not shown
Protocol: Data were analyzed in Partek. Total RNAs were isolated from PC3 cells. Libraries were prepared suing the standard methodology from Illumina. Generated libraries were run on a HiSeq2500 system. Raw reads were quality-checked and subsequently mapped to the human genome (hg19) using Tophat2 (2.2.4) using default settings (Langmead and Salzberg, 2012). Differential gene expression was analyzed using the DESeq2 (1.8.1) package in R using default settings (Love et al., 2014). Gene set enrichment analysis (GSEA) (Subramanian et al., 2005) was performed on a pre-ranked gene list that generated based on the gene expression changes between the RNF2 knockdown and control cells. […] Heatmap analysis was performed to show the gene expression patterns between the RNF2 knockdown and control repeats, using heatmap3 R package with ward2 as distance function. Gene expressions in the heatmap were transformed in logarithm scale and normalized accordingly.

[6] = system: RNF2 target genes (CCL2, CXCL1, LGR5, NTS, ATF3); experiment: Quantitative RT-PCR of RNF2 target genes in PC3 or RM1 cells; type: cell-based; conditions: 0.5 and 1.0 μM; compared with RNF2 silencing
Protocol: as §5

RM1 cells [7] = experiment: Metastasis in C57BL/6 mice injected with RM1 cells; type: in vivo, mouse
Protocol: as §1, §2
For bioluminescent imaging, mice were anesthetized and injected with 1.5 mg of D-luciferin retro-orbitally at the indicated times. Animals were imaged in an IVIS® 100 chamber within 5 min after D-luciferin injection, and data were recorded using LIVING IMAGE® software (Xenogen). To measure bone colonization after intracardiac injection, photon flux was calculated by using the ROI tool in the LIVING IMAGE® software. […]

[8] = system: Pten^pc−/−Smad4^pc−/− cells; experiment: Multi-organ metastasis in FVB/NJ mice inoculated intracardially with Pten pc-/- Smad4 pc-/- cells; type: in vivo, mouse; conditions: for Numbers of TAMs and Tregs in bone lesions: on-treatment staining of bone lesions
Protocol: as §1, §2, §3, §4
For iNOS/CD68 or Arg1/CD68 staining, first, slides were incubated with anti-iNOS or anti-Arg1 for 5 hours, followed by 60 minutes incubation with biotinylated goat anti-rabbit IgG at 1:200 dilution. The detection was performed with Streptavidin-HRP D (part of DABMap kit, Ventana Medical Systems), followed by incubation with Tyramide Alexa Fluor 488 prepared according to manufacturer instruction with predetermined dilutions. Next, sections were incubated with anti-CD68 for 5 hours, followed by 60 minutes incubation with biotinylated goat anti-rabbit IgG at 1:200 dilution. The detection was performed with Streptavidin-HRP D (part of DABMap kit, Ventana Medical Systems), followed by incubation with Tyramide Alexa CF 594 prepared according to manufacturer instruction with predetermined dilutions. After staining slides were counterstained with DAPI for 10 min and coverslipped with MOWIOL®.
At the end point in vivo experiment, blood and bone marrow cells were collected from each mouse and treated with Red Blood Cell lysis buffer for 5 minutes. Cells were then washed once with RPMI supplemented 2% FBS, stained with indicated antibodies and analyzed by FACS.

[9] = PC3 cells, titration experiments
[10] = PC3 cells, read-out: Inhibition of H2Aub normalized to control groups, IC50
[11] = bone metastatic sites, Pten/Smad4 and RM1 models

In the case of `CNC(=O)c1cc(Oc2ccc3nc(N[C@@H]4CCCC[C@H]4O)sc3c2)ccn1` [BLZ945, reference compound], the “Outgrowth of macroscopic bone lesions (bioluminescent imaging)” value (PC3 cells [1]) is reported as “effectively inhibit the outgrowth of macroscopic bone lesions”.

`Nc1ccc(CCN2C(=O)c3c(F)c(F)c(F)c(F)c3C2=O)cc1` [Compound 1] was tested, and the “Inhibition of H2AUb, fold more efficient as compared to 2” value (PRC1; [9]) was over 7.5 fold, the IC50 (PRC1; [10]) was 470 nM and the “Inhibition of PRC1 activity relative to 3 (PTC209)” value (PRC1; data not shown) was “more effectively as compared to 3”. For the same molecule, the IC50 (PRC1; inhibitor of RNF2, read-out: Apparent IC50 in cells and on target) was ~470 nM and ~500 nM, the IC50 (PC3 cells [2]; PC3 cells) was 130 nM and the “Inhibition of sphere formation, fold more efficient as compared to 2” value (PC3 cells [2]; [9]) was over 7.5 fold. The “Inhibition of tumor sphere” value (RM1 cells [3]) was “inhibited tumor sphere to a similar extent”, the “Inhibition of cell growth” value (PC3 cells [4]) was “did not inhibit cell growth” and the “Inhibition of RNF2-mediated H2AUb” value (RNF2-PRC1 complex) was “inhibited RNF2-mediated H2AUb in a dose-dependent fashion”. The “Gene expression changes in cancer-relevant pathways” value (PC3 cells [5]) was “changes larger than those caused by 2 and by RNF2 silencing”, the “Downregulation or upregulation of key PRC1 targets (RT-qPCR)” value [6] was “as effectively as silencing of RNF2” and the “Formation of bone metastases” value (PC3 cells [1]; 25 mg/kg, treatment from day 7, 2×/week) was “prevented formation of bone metastases”. The “Expansion of bone macrometastases” value (PC3 cells [1]; 25 mg/kg, treatment from day 21, 2 weeks of treatment) was “significant suppression of their expansion”, the “Nuclear H2AUb levels in bone sections (IHC)” value (PC3 cells [1]; bone sections of treated mice) was “substantially decreases” and the “Secretion of CCL2 in the tumor microenvironment (IHC)” value (PC3 cells [1]; bone sections of treated mice) was “substantially decreases”. The “Outgrowth of bone, brain and liver metastases” value (RM1 cells [7]; C57BL/6 mice, data not shown) was “inhibited the outgrowth of bone, brain and liver metastases”, the “FACS analysis of leukocytes from peripheral blood” value (RM1 cells [7]; treated mice) was “significant decrease of macrophages and increase of T cells and NK cells” and the “Multi-organ metastasis (bioluminescent imaging)” value ([8]; 1 at 10 mg/kg, DCIT = anti-CTLA4 + anti-PD-1) was “only inhibited this process”. The “Number of M1-like macrophages” value [8, 11] was “increases the number of M1-like macrophages”, the “Percentage of M2-like TAMs (CD68 and Arg1/iNOS double staining)” value [8, 11] was “dramatically decreases the percentage of M2-like TAMs” and the “Numbers of TAMs and Tregs in bone lesions” value ([8]; Pten/Smad4 and RM1 models) was “reduces the numbers of TAMs and Tregs”. For the same molecule, the “Numbers of MDSCs and TAMs (FACS)” value ([8]; peripheral blood and bone marrow) was “reduces the numbers of MDSCs and TAMs”.

`Cc1ccc2c(c1)C1(CCN(CCc3nc(-c4ccccc4)oc3C)CC1)OC(=O)N2` [RS504393, reference compound] was tested, and the “Outgrowth of macroscopic bone lesions (bioluminescent imaging)” value (PC3 cells [1]) was “effectively inhibit the outgrowth of macroscopic bone lesions”.

In the case of `O=C1C(=Cc2cccnc2)C(=O)c2ccccc21` [Compound 2, 2-(pyridin-3-ylmethylene)-1H-indene-1,3(2H)-dione, reference compound], the “Concentration at which PRC1 activity was inhibited, assessed by monoubiquitylation of histone H2A” value (PRC1) is reported as 25 µM, the IC50 (PRC1; [10]) is reported as 3520 nM and the IC50 (PC3 cells [2]; PC3 cells) is reported as 1050 nM. The “Concentration at which growth of oncospheres was inhibited” value (PC3 cells [2]; inhibited only at this concentration) was 25 µM, the “Number of M1-like macrophages” value [8, 11] was “increases the number of M1-like antigen presentation-competent macrophages” and the “Numbers of TAMs and Tregs in bone lesions” value ([8]; Pten/Smad4 and RM1 models) was “suppresses the recruitment of total TAMs”.
